Measured values reported in patent publication US10370343B2, “[6,6] Fused bicyclic HDAC8 inhibitors” (FORMA Therapeutics, Inc., priority 2015, dated 2019).

target: T1, Recombinant N-terminal GST tag full-length human HDAC8 (Homo sapiens, UniProt Q9BY41); experiment: HDAC8 probe binding assay, time resolved fluorescence (TRF) format; settings: compounds grouped by IC50 range (Table 2)
T1 construct: Recombinant N-terminal GST tag full-length human HDAC8; purchased SignalChem H90-30G-1000; host or cells: baculovirus in Sf9 insect cells
T1 sequence (Q9BY41 1-377): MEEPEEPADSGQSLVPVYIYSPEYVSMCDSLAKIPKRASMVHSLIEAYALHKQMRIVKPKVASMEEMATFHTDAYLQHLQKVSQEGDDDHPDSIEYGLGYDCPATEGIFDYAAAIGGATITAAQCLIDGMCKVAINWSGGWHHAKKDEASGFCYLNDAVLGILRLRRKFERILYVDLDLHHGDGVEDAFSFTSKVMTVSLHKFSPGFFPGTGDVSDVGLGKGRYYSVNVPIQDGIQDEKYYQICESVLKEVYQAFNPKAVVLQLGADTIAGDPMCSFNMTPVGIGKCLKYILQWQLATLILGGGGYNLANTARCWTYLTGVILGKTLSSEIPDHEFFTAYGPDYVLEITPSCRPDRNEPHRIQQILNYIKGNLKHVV
Procedure, shortened: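 IC50 values come from four-parameter logistic fits of percent inhibition, scaled between DMSO (high) and no-enzyme (low) controls. Time-resolved fluorescence (ex 340, em 485/535 nm) was read after 16 h at room temperature. Enzyme was Sf9-expressed full-length human HDAC8 with an N-terminal GST tag, in a probe-binding format.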

| IC50 [nM] | SMILES |
| --- | --- |
| ≤ 25 | O=C(NO)c1ccc2c(c1)N(Cc1ccc(Cl)c(F)c1)C(=O)CO2 [Compound I-346, 4-(4-chloro-3-fluorobenzyl)-N-hydroxy-3-oxo-3,4-dihydro-2H-benzo[b][1,4]oxazine-6-carboxamide] |
| ≤ 25 | CN(C)S(=O)(=O)c1ccc(CN2C(=O)COc3ccc(C(=O)NO)cc32)cc1 [Compound I-189, 4-(4-(N,N-dimethylsulfamoyl)benzyl)-N-hydroxy-3-oxo-3,4-dihydro-2H-benzo[b][1,4]oxazine-6-carboxamide] |
| ≤ 25 | O=C(NO)c1ccc2c(c1)N(Cc1ccc(C(F)(F)F)cc1Cl)C(=O)CO2 [Compound I-356, 4-(2-chloro-4-(trifluoromethyl)benzyl)-N-hydroxy-3-oxo-3,4-dihydro-2H-benzo[b][1,4]oxazine-6-carboxamide] |
| 25 to 100 | O=C(NO)c1ccc2c(c1)N(Cc1cn3ccsc3n1)C(=O)CO2 [Compound I-363, N-hydroxy-4-(imidazo[2,1-b]thiazol-6-ylmethyl)-3-oxo-3,4-dihydro-2H-benzo[b][1,4]oxazine-6-carboxamide] |
| 25 to 100 | CC1(C)Oc2ccc(C(=O)NO)cc2N(Cc2ccc3ccccc3c2)C1=O [Compound I-317, N-hydroxy-2,2-dimethyl-4-(naphthalen-2-ylmethyl)-3-oxo-3,4-dihydro-2H-benzo[b][1,4]oxazine-6-carboxamide] |
| ≤ 25 | COCCOc1cccc(CN2C(=O)COc3ccc(C(=O)NO)cc32)c1 [Compound I-197, N-hydroxy-4-(3-(2-methoxyethoxy)benzyl)-3-oxo-3,4-dihydro-2H-benzo[b][1,4]oxazine-6-carboxamide] |
| ≤ 25 | O=C(NO)c1ccc2c(c1)N(Cc1cccc(Oc3ccccc3)c1)C(=O)CO2 [Compound I-220, N-hydroxy-3-oxo-4-(3-phenoxybenzyl)-3,4-dihydro-2H-benzo[b][1,4]oxazine-6-carboxamide] |
| 25 to 100 | CC1(C)Oc2ccc(C(=O)NO)cc2N(Cc2ccc(Cl)c(Cl)c2)C1=O [Compound I-312, 4-(3,4-dichlorobenzyl)-N-hydroxy-2,2-dimethyl-3-oxo-3,4-dihydro-2H-benzo[b][1,4]oxazine-6-carboxamide] |
| ≤ 25 | O=C(NO)c1ccc2c(c1)N(Cc1cc(Cl)cc(Cl)c1)C(=O)CO2 [Compound I-355, 4-(3,5-dichlorobenzyl)-N-hydroxy-3-oxo-3,4-dihydro-2H-benzo[b][1,4]oxazine-6-carboxamide] |
| ≤ 25 | CN1C(=O)CCc2cc(CN3C(=O)COc4ccc(C(=O)NO)cc43)ccc21 [Compound I-183, N-hydroxy-4-((1-methyl-2-oxo-1,2,3,4-tetrahydroquinolin-6-yl)methyl)-3-oxo-3,4-dihydro-2H-benzo[b][1,4]oxazine-6-carboxamide] |
| ≤ 25 | N#Cc1ccc(CN2C(=O)COc3ccc(C(=O)NO)cc32)c(Cl)c1 [Compound I-372, 4-(2-chloro-4-cyanobenzyl)-N-hydroxy-3-oxo-3,4-dihydro-2H-benzo[b][1,4]oxazine-6-carboxamide] |
| ≤ 25 | O=C(NO)c1ccc2c(c1)N(Cc1ncc(-c3ccccc3)o1)C(=O)CO2 [Compound I-191, N-hydroxy-3-oxo-4-((5-phenyloxazol-2-yl)methyl)-3,4-dihydro-2H-benzo[b][1,4]oxazine-6-carboxamide] |
| ≤ 25 | COc1ccc(F)c(CN2C(=O)COc3ccc(C(=O)NO)cc32)c1 [Compound I-371, 4-(2-fluoro-5-methoxybenzyl)-N-hydroxy-3-oxo-3,4-dihydro-2H-benzo[b][1,4]oxazine-6-carboxamide] |
| ≤ 25 | O=C(NO)c1ccc2c(c1)N(Cc1ccc(-n3cccn3)cc1)C(=O)OC2 [Compound I-166, 1-(4-(1H-pyrazol-1-yl)benzyl)-N-hydroxy-2-oxo-1,4-dihydro-2H-benzo[d][1,3]oxazine-7-carboxamide] |
| ≤ 25 | CC1(C)Oc2ccc(C(=O)NO)cc2N(Cc2nc3ccc(F)cc3o2)C1=O [Compound I-291, 4-((6-fluorobenzo[d]oxazol-2-yl)methyl)-N-hydroxy-2,2-dimethyl-3-oxo-3,4-dihydro-2H-benzo[b][1,4]oxazine-6-carboxamide] |
| 25 to 100 | COc1ccc(CN2CC(C(=O)N3CCOCC3)Oc3ccc(C(=O)NO)cc32)cc1 (stereo not drawn) [Compound I-171, N-hydroxy-4-(4-methoxybenzyl)-2-(morpholine-4-carbonyl)-3,4-dihydro-2H-benzo[b][1,4]oxazine-6-carboxamide] |
| 25 to 100 | CC1(C)Oc2ccc(C(=O)NO)cc2N(Cc2nc(-c3ccccc3)sc2Cl)C1=O [Compound I-308, 4-((5-chloro-2-phenylthiazol-4-yl)methyl)-N-hydroxy-2,2-dimethyl-3-oxo-3,4-dihydro-2H-benzo[b][1,4]oxazine-6-carboxamide] |

| IC50 [nM] | SMILES |
| --- | --- |
| ≤ 25 | CC(=O)Nc1ccc(CN2C(=O)COc3ccc(C(=O)NO)cc32)cc1 [Compound I-186, 4-(4-acetamidobenzyl)-N-hydroxy-3-oxo-3,4-dihydro-2H-benzo[b][1,4]oxazine-6-carboxamide] |
| ≤ 25 | O=C(NO)c1ccc2c(c1)N(Cc1ccc(-n3cncn3)cc1)C(=O)CO2 [Compound I-175, 4-(4-(1H-1,2,4-triazol-1-yl)benzyl)-N-hydroxy-3-oxo-3,4-dihydro-2H-benzo[b][1,4]oxazine-6-carboxamide] |
| 25 to 100 | C[C@@H](c1ccccc1)N1C(=O)C(C)(C)Oc2ccc(C(=O)NO)cc21 [Compound I-303, (S)-N-hydroxy-2,2-dimethyl-3-oxo-4-(1-phenylethyl)-3,4-dihydro-2H-benzo[b][1,4]oxazine-6-carboxamide] |
| 25 to 100 | O=C(NO)c1ccc2c(c1)N(Cc1ccncc1)C(=O)CO2 [Compound I-215, N-hydroxy-3-oxo-4-(pyridin-4-ylmethyl)-3,4-dihydro-2H-benzo[b][1,4]oxazine-6-carboxamide] |
| 25 to 100 | O=C(NO)c1ccc2c(c1)N(Cc1cnc3[nH]ccc3c1)C(=O)CO2 [Compound I-324, 4-((1H-pyrrolo[2,3-b]pyridin-5-yl)methyl)-N-hydroxy-3-oxo-3,4-dihydro-2H-benzo[b][1,4]oxazine-6-carboxamide] |
| ≤ 25 | O=C(NO)c1ccc2c(c1)N(Cc1ccc(F)c(Cl)c1)C(=O)CO2 [Compound I-351, 4-(3-chloro-4-fluorobenzyl)-N-hydroxy-3-oxo-3,4-dihydro-2H-benzo[b][1,4]oxazine-6-carboxamide] |
| ≤ 25 | O=C(NO)c1ccc2c(c1)N(Cc1ccc(Cl)c(C(F)(F)F)c1)C(=O)CO2 [Compound I-345, 4-(4-chloro-3-(trifluorornethyl)benzyl)-N-hydroxy-3-oxo-3,4-dihydro-2H-benzo[b][1,4]oxazine-6-carboxamide] |
| 25 to 100 | O=C(NO)c1ccc2c(c1)N(Cc1cn3cc(F)ccc3n1)C(=O)CO2 [Compound I-368, 4-((6-fluoroimidazo[1,2-a]pyridin-2-yl)methyl)-N-hydroxy-3-oxo-3,4-dihydro-2H-benzo[b][1,4]oxazine-6-carboxamide] |
| ≤ 25 | O=C(NO)c1ccc2c(c1)N(Cc1coc(-c3ccccc3)n1)C(=O)CO2 [Compound I-179, N-hydroxy-3-oxo-4-((2-phenyloxazol-4-yl)methyl)-3,4-dihydro-2H-benzo[b][1,4]oxazine-6-carboxamide] |
| 25 to 100 | COc1ccc(CN2CC(C(=O)NC3CCOCC3)Oc3ccc(C(=O)NO)cc32)cc1 (stereo not drawn) [Compound I-172, N6-hydroxy-4-(4-methoxybenzyl)-N2-(tetrahydro-2H-pyran-4-yl)-3,4-dihydro-2H-benzo[b][1,4]oxazine-2,6-dicarboxamide] |
| 25 to 100 | O=C(NO)c1ccc2c(c1)N(Cc1c[nH]c3ccccc13)C(=O)CO2 [Compound I-200, 4-((1H-indol-3-yl)methyl)-N-hydroxy-3-oxo-3,4-dihydro-2H-benzo[b][1,4]oxazine-6-carboxamide] |
| 25 to 100 | CN1CCCc2cc(CN3C(=O)COc4ccc(C(=O)NO)cc43)ccc21 [Compound I-182, N-hydroxy-4-((1-methyl-1,2,3,4-tetrahydroquinolin-6-yl)methyl)-3-oxo-3,4-dihydro-2H-benzo[b][1,4]oxazine-6-carboxamide] |
| 25 to 100 | Cc1ccn2cc(CN3C(=O)COc4ccc(C(=O)NO)cc43)nc2c1 [Compound I-364, N-hydroxy-4-((7-methylimidazo[1,2-a]pyridin-2-yl)methyl)-3-oxo-3,4-dihydro-2H-benzo[b][1,4]oxazine-6-carboxamide] |
| ≤ 25 | Cc1nc2ccc(CN3C(=O)COc4ccc(C(=O)NO)cc43)cc2o1 [Compound I-239, N-hydroxy-4-((2-methylbenzo[d]oxazol-6-yl)methyl)-3-oxo-3,4-dihydro-2H-benzo[b][1,4]oxazine-6-carboxamide] |
| ≤ 25 | COc1cnc2sc(CN3C(=O)COc4ccc(C(=O)NO)cc43)nc2c1 [Compound I-208, N-hydroxy-4-((6-methoxythiazolo[5,4-b]pyridin-2-yl)methyl)-3-oxo-3,4-dihydro-2H-benzo[b][1,4]oxazine-6-carboxamide] |
| ≤ 25 | O=C(NO)c1ccc2c(c1)N(Cc1ccn3ccnc3c1)C(=O)CO2 [Compound I-338, N-hydroxy-4-(imidazo[1,2-a]pyridin-7-ylmethyl)-3-oxo-3,4-dihydro-2H-benzo[b][1,4]oxazine-6-carboxamide] |
